The text below walks through data of ChEMBL document CHEMBL3351405, “Novel tricyclic pyrazolopyrimidines as potent and selective GPR119 agonists” (Bioorg Med Chem Lett, 2014).

In brackets after ≈: the same amount, converted by molar mass.

The target of series [1] is T1, Glucose-dependent insulinotropic receptor (Homo sapiens, UniProt Q8TDV5).
T1 sequence (Q8TDV5 whole entry): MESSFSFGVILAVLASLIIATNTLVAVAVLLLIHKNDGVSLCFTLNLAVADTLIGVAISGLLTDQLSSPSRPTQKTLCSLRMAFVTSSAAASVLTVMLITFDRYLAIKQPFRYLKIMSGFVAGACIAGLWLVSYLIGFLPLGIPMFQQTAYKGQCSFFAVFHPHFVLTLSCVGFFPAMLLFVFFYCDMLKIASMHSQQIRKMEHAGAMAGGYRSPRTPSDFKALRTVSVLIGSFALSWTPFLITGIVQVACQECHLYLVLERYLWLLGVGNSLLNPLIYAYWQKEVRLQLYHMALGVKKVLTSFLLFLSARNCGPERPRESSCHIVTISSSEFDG
Kind of series: Agonist activity at human GPR119 overexpressed in CHO cells assessed as increase in cellular cAMP production by HTRF method. Format: functional, cell-based.

Series [2] has as its target T2, Glucose-dependent insulinotropic receptor (Homo sapiens) (UniProt Q8TDV5).
T2 sequence (whole entry): T1 sequence (Q8TDV5 whole entry)
Nature of the series: Agonist activity at human GPR119 overexpressed in CHO cells assessed as increase in cellular cAMP production by HTRF method relative to AR231453. Type of series: functional, cell-based.

A short description of series [3]: Clearance in human liver microsomes assessed as extraction ratio. Format: ADME. Particulars: read-out: ERH. Background: Microsomes from liver hold many membrane-bound enzymes, among them those of drug oxidation.
The test system of another series is Mus musculus. Nature of the series: Dose normalized AUC in po dosed Balb/C mouse. The settings on record: in vivo. Format: ADME, organism-based.
A short description of series [4]: Solubility of the compound at pH 6.8. Format: physicochemical. The settings on record: buffer.
Series [5] concerns the target T3, Glucose-dependent insulinotropic receptor (Mus musculus, UniProt Q7TQP3).
T3 sequence (Q7TQP3 whole entry): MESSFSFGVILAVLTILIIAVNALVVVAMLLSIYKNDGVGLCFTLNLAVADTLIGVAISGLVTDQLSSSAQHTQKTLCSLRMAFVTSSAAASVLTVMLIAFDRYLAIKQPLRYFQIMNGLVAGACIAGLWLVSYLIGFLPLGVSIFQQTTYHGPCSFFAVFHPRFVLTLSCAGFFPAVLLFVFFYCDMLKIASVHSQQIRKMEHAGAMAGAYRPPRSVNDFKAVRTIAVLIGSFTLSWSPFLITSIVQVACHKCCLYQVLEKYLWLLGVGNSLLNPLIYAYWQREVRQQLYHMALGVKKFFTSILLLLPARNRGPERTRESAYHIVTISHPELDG
Nature of the series: Agonist activity at mouse GPR119 overexpressed in CHO cells assessed as increase in cellular cAMP production by HTRF method. Type of series: functional, cell-based. For orientation: Cyclic AMP is a second messenger, typically raised through Gs and lowered through Gi signalling.

In series [6] the target is T4, Glucose-dependent insulinotropic receptor (Mus musculus) (UniProt Q7TQP3).
T4 sequence (whole entry): T3 sequence (Q7TQP3 whole entry)
Kind of series: Agonist activity at mouse GPR119 overexpressed in CHO cells assessed as increase in cellular cAMP production by HTRF method relative to AR231453. Type of series: functional, cell-based.

The nature of series [7]: Clearance in rat liver microsomes assessed as extraction ratio. Type of series: ADME. The settings on record: read-out: ERH.
Series [8] in a line: Clearance in mouse liver microsomes assessed as extraction ratio. Format: ADME. The settings on record: read-out: ERH.

As to `COCCN(C)C(=O)[C@@]1(Cc2cccc(F)c2)NCc2cnc3c(-c4ccc(C(F)(F)F)cc4)cnn3c21`, the EC50 (as a rule, the concentration that produces a half-maximal response) in series [1] was 2 nM. For the same compound, in series [2], the Efficacy turned out to be 90%. Also, the hepatic extraction ratio in [3] amounted to 0.9. Besides, the AUC/dose with Mus musculus was found to be 0.07 µM·h. Further, the solubility – broadly, how much of the substance goes into solution per volume – in series [4] was less than 5 µM.

As for `CCOC(=O)C1(Cc2ccccc2)c2c(cnc3c(-c4ccc(C(F)(F)F)cc4)cnn23)CN1C` (racemic), the EC50 in series [1] stood at 214 nM. In addition, in series [2], the Efficacy amounted to 55%.

On to `COC(=O)[C@@]1(Cc2cccc(F)c2)NCc2cnc3c(-c4ccc(C(F)(F)F)cc4)c(C(C)(C)O)nn3c21`, for which the EC50 in series [1] was determined as 530 nM. The Efficacy in [2] turned out to be 58%. Further, the hepatic extraction ratio in [3] worked out at 0.51.

For the compound `CCOC(=O)[C@@]1(Cc2ccccc2)CCc2cnc3c(-c4ccc(Cl)cc4)cnn3c21`, the EC50 in series [1] was determined as 3 nM; in [5], 11 nM. The Efficacy in series [2] came to 73%; in series [6], 78%. Further, the hepatic extraction ratio in series [3] turned out to be 0.79.

As to `CCOC(=O)[C@](C)(Cc1ccccc1)c1c(C)cnc2c(-c3ccc(C(F)(F)F)cc3)cnn12`, the EC50 in [1] was 1 nM; in [5], 11 nM. The Efficacy in series [2] was determined as 80%; in [6], 62%. Further, the hepatic extraction ratio in series [3], in series [7] and in [8] was 0.3 each time. The AUC/dose in the series on Mus musculus worked out at 0.6 µM·h.

Turning to `OCc1nn2c3c(cnc2c1-c1ccc(C(F)(F)F)cc1)CN[C@]3(Cc1cccc(F)c1)C1CC1`, the EC50 in [1] is 2 nM. The Efficacy in [2] was 88%. Also, the hepatic extraction ratio in series [3] worked out at 0.9. The solubility in [4] turned out to be 6 µM (≈ 2.89 µg/mL).

For the compound `OCc1nn2c3c(cnc2c1-c1ccc(C(F)(F)F)nc1)CN[C@]3(Cc1cccc(F)c1)C1CC1`, the EC50 in [1] is 6 nM. Also, the Efficacy in series [2] was 82%. The hepatic extraction ratio in series [3] came out at 0.93. Further, in [4], the solubility was 36 µM (≈ 17.4 µg/mL).

Consider `CCOC(=O)[C@](C)(Cc1ccccc1)c1c(Cl)cnc2c(-c3ccc(C(F)(F)F)cc3)cnn12`, for which the EC50 in series [1] amounted to 3 nM; in [5], 8 nM. The Efficacy in [2] came to 75%; in series [6], 73%.

Consider `[2H]C([2H])(O)c1nn2c3c(cnc2c1-c1ccc(C(F)(F)F)nc1)CN[C@]3(Cc1cccc(F)c1)C(=O)OC`, for which, in series [1], the EC50 is 35 nM. Moreover, the hepatic extraction ratio in [3] is 0.85. This compound also yielded an AUC/dose in the series with Mus musculus of 6.56 µM·h. The concentration in solution in [4] (solubility) was 83 µM (≈ 41.8 µg/mL).

In the case of `COC(=O)C1(Cc2ccccc2)CCc2cnc3c(-c4ccc(C(F)(F)F)cc4)cnn3c21` (racemic), the EC50 in [1] turned out to be 2 nM; in series [5], 17 nM. The results for the Efficacy in series [2] and in series [6] were 82% and 91%, respectively. Further, the hepatic extraction ratio in series [3] was found to be 0.93.

For `COC(=O)[C@@]1(Cc2cccc(F)c2)NCc2cnc3c(-c4ccc(C(F)(F)F)cc4)cnn3c21`, the EC50 came out at 3 nM in series [1] and 14 nM in series [5]. In addition, the Efficacy came to 91% in series [2] and 88% in series [6]. Further, the hepatic extraction ratio in [3] was 0.95. In the series with Mus musculus, this compound returned an AUC/dose of 0.31 µM·h.

On to `COC(=O)[C@@]1(Cc2cccc(F)c2)NCc2cnc3c(-c4ccc(C(F)(F)F)cc4)c(C(N)=O)nn3c21`, for which the EC50 in series [1] amounted to 20 nM. The Efficacy in series [2] was 74%. Further, the hepatic extraction ratio in [3] was 0.92. In addition, in series [4], the concentration in solution (solubility) came to 39 µM (≈ 20 µg/mL).

With `COC(=O)C1(Cc2ccccc2)OCc2cnc3c(-c4ccc(C(F)(F)F)cc4)cnn3c21` (racemic), the figures for the EC50 in [1] and in series [5] were 34 nM and 35 nM, respectively. Moreover, the figures for the Efficacy in [2] and in series [6] were 77% and 78%, respectively. Besides, in [3], the hepatic extraction ratio worked out at 0.96.

Regarding `CCOC(=O)[C@](C)(Cc1ccccc1)c1cc(C)nc2c(-c3ccc(Cl)cc3)cnn12`, in [1], the EC50 is more than 10 nM. Further, the Efficacy in series [2] is 15%.

`COC(=O)C1(Cc2ccccc2)CCc2cnc3c(-c4ccc(C#N)cc4)cnn3c21` (racemic): the EC50 in series [1] stood at 7 nM. For the same compound, the Efficacy in series [2] was 55%.

With `CCOC(=O)[C@]1(Cc2ccccc2)CCc2cnc3c(-c4ccc(C(F)(F)F)cc4)cnn3c21`, the EC50 in [1] came to 38 nM. Besides, in [2], the Efficacy was determined as 66%.

Regarding `CCOC(=O)C1(Cc2cccc(F)c2)NC(=O)c2cnc3c(-c4ccc(C(F)(F)F)cc4)cnn3c21` (racemic), in series [1], the EC50 was 298 nM. The Efficacy in series [2] was 81%.

As for `Fc1cccc(CC2(C3CC3)NCc3cnc4c(-c5ccc(C(F)(F)F)cc5)cnn4c32)c1` (racemic), the EC50 in series [1] is 21 nM. In [2], the Efficacy came out at 87%. The hepatic extraction ratio in series [3] was 0.6.

On to `CCOC(=O)[C@@]1(Cc2ccccc2)CCCc2cnc3c(-c4ccc(C(F)(F)F)cc4)cnn3c21`, for which the values for the EC50 in series [1] and in series [5] were 8 nM and 27 nM, respectively. Besides, the Efficacy turned out to be 75% in series [2] and 59% in [6]. Besides, the hepatic extraction ratio in series [3] is 0.71.

As to `COC(=O)[C@@]1(Cc2cccc(F)c2)NCc2cnc3c(-c4ccc(C(F)(F)F)nc4)c(CO)nn3c21`, the EC50 in series [1] is 15 nM. For the same compound, the Efficacy in series [2] stood at 101%; in series [2] (tested as the 2H-labelled form), 87%. In [3], the hepatic extraction ratio was found to be 0.82. Moreover, in series [4], the solubility was determined as 99 µM (≈ 49.6 µg/mL).

Turning to `COC(=O)[C@@]1(Cc2cccc(F)c2)CCc2cnc3c(-c4ccc(C(F)(F)F)cc4)cnn3c21`, the EC50 in series [1] amounted to 3 nM; in series [5], 9 nM. For the same compound, the Efficacy in series [2] came to 92%; in series [6], 81%. For the same compound, the hepatic extraction ratio in [3] came to 0.96.

Take `CCOC(=O)[C@@]1(Cc2ccccc2)CCc2cnc3c(-c4ccc(C(F)(F)F)cc4)cnn3c21`: the EC50 in [1] came out at 0.5 nM; in series [5], 8 nM. Also, the Efficacy was 85% in [2] and 80% in series [6]. Besides, the hepatic extraction ratio in series [3] is 0.96; in [7], 0.6; in [8], 0.6. For the same compound, in the series on Mus musculus, the AUC/dose amounted to 0.3 µM·h.

In the case of `COC(=O)C1(Cc2ccccc2)COc2cnc3c(-c4ccc(C(F)(F)F)cc4)cnn3c21` (racemic), the EC50 in series [1] was determined as 11 nM; in series [5], 15 nM. The Efficacy in series [2] came out at 83%; in series [6], 76%. Besides, in series [3], the hepatic extraction ratio is 0.88.

On to `[2H]C([2H])(O)c1nn2c3c(cnc2c1-c1ccc(C(F)(F)F)cc1)CN[C@]3(Cc1cccc(F)c1)C(=O)OC`, for which the EC50 in series [1] was found to be 2 nM. The hepatic extraction ratio in series [3] was 0.83. In addition, in the series with Mus musculus, the AUC/dose worked out at 7.89 µM·h. For the same compound, the concentration in solution in series [4] (solubility) was 26 µM (≈ 13.1 µg/mL).

As for `CCOC(=O)[C@@]1(Cc2ccccc2)CNc2cnc3c(-c4ccc(C(F)(F)F)cc4)cnn3c21`, the EC50 in series [1] and in [5] was 25 nM each time. In addition, the Efficacy in series [2] stood at 75%; in series [6], 80%. The hepatic extraction ratio in [3] was 0.75.

`CC1(Cc2cccc(F)c2)NCc2cnc3c(-c4ccc(C(F)(F)F)cc4)cnn3c21` (racemic): in series [1], the EC50 amounted to 436 nM. The Efficacy in [2] was 77%.

For `COC(=O)[C@@]1(Cc2cccc(F)c2)N=Cc2cnc3c(-c4ccc(C(F)(F)F)cc4)cnn3c21`, the values for the EC50 in series [1] and in series [5] were 73 nM and 135 nM, respectively. Further, the Efficacy in series [2] was found to be 84%; in series [6], 80%. In series [3], the hepatic extraction ratio came to 0.97.

In the case of `CCOC(=O)C1(Cc2ccccc2)CCc2cnc3c(-c4ccc(Oc5ccccc5)cc4)cnn3c21` (racemic), the EC50 in series [1] was 20 nM. For the same compound, the Efficacy in series [2] stood at 60%.

Regarding `CCOC(=O)[C@](C)(Cc1ccccc1)c1ccnc2c(-c3ccc(C(F)(F)F)cc3)c(C)nn12`, the EC50 in series [1] was found to be 23 nM; in [5], 24 nM. Further, the Efficacy was 83% in series [2] and 72% in series [6].

Take `COC(=O)C1(Cc2ccccc2)CCc2cnc3c(-c4ccc(S(C)(=O)=O)cc4)cnn3c21` (racemic): the EC50 in series [1] was determined as 125 nM. Further, the Efficacy in series [2] came to 81%. For the same compound, the hepatic extraction ratio in series [3] worked out at 0.89.

As to `CCOC(=O)C1(Cc2ccccc2)CCCCCc2cnc3c(-c4ccc(C(F)(F)F)cc4)cnn3c21` (racemic), in series [1], the EC50 is 101 nM. The Efficacy in series [2] was 56%.

Take `COC(=O)C1(Cc2ccccc2)CCCCc2cnc3c(-c4ccc(C(F)(F)F)cc4)cnn3c21` (racemic): the EC50 in series [1] was found to be 74 nM. Besides, the Efficacy in series [2] turned out to be 66%.
